The values below come from PMC5145181, “Structural Mapping and Functional Characterization of Zebrafish Class B G-Protein Coupled Receptor (GPCR) with Dual Ligand Selectivity towards GLP-1 and Glucagon” (PLoS ONE, 2016).

Like-named read-outs stand apart in the source and are kept apart here.

The subject of one experiment is GLP-1R. As to conditions: cited from earlier work. The text has this: Receptors for GLP-1 (GLP-1R) and glucagon (GCGR) belong to the class B GPCRs that mediate the physiological effects of the peptides within the glucagon-secretin peptide family. Their structures are characterized by large amino terminal extracellular domains which are about 140 amino acids long and an intracellular core consisting of a cytoplasmic domain and seven transmembrane helices (7TMs) connected through three extracellular and three intracellular loops.

The subject of experiment [1] is zfGPCR (dual zfGLP-1R/GCGR). Kind of experiment: Competitive binding, displacement of 125I-hGLP-1(7–36)amide from recombinant zfGPCR expressed in COS-7 cells. More on the design: species or system zebrafish (Danio rerio). As to conditions: 125I-hGLP-1(7–36)amide tracer, intact COS-7 cells, 16–18 h at 4°C, triplicate wells; NSB with 1 μM peptide; n = 3 hGLP-1, n = 2 zf glucagon, exendin-4, exendin(9–39), n = 1 zfGLP-1. 95% CI: zfGLP-1 1.2–3.6; hGLP-1 0.98–13; zf glucagon 1.4–4.0; exendin-4 0.24–0.92; exendin(9–39) 2.4–14. The method, then: Competitive binding experiments were performed with the recombinant zfGPCR expressed in COS-7 cells, as described previously. Transient transfections of pcDNA3 vector containing recombinant zfGPCR into COS-7 cells were performed as described below for the stimulation of intracellular cAMP. Cells were grown in 100-mm plates to confluence and 24 hr after transfection they were trypsinized and transferred to 24 well plates (Biocore, Becton Dickinson). 24–48 hr later each peptide (pM to μM) was added in triplicate wells followed by the addition of an aliquot (100,000 cpm/well) of either ^125I-hGLP-1(7–36)amide or ^125I-exendin(9–39) (each radioactive peptide tracer at […] receptor grade, NEN Life Science Products, Boston, MA). Peptides, radioiodinated ^125I-tracer and cells were incubated for 16–18 h at 4°C. After incubation cells were washed twice with ice-cold PBS, lysed with 1N NaOH and radioactivity measured in a γ-counter. A single dose-displacement curve for each peptide was obtained in a single 24-well plate.
Dose-response curves for zfGLP-1, zfGLP-2 and zebrafish PACAP-38 were obtained from one transfection. […] Lower rounds of transfections were performed in experiments that replicated our published results from the competitive binding experiments with the displacement of ^125I-hGLP-1(7–36)amide binding to zfGPCR [41] and thus represented positive controls for these studies.
IC50 values represent an average of n experiments as described above and were calculated by the Prism 4 software. Displacement curves from the competitive binding experiments were plotted by Origin 9 software (OriginLab). Error bars are shown for data points in the displacement curves obtained in two or more rounds of transfections.
Results from the functional experiments with recombinant zfGPCR transiently expressed in COS-7 cells were analyzed by the Prism 4 software using a four-parameter logistic sigmoidal curve fit model. Data points represent mean +/- SEM.
They are shown together with the 95% confidence intervals (CIs). […]
For orientation: In a radioligand displacement assay an active substance lowers the binding of a labelled ligand.

Experiment [2] deals with hGLP-1R mutant Ser155 to alanine. As to conditions: Ser152 in hGCGR = Ser155 in hGLP-1R, mutated to alanine; cited from earlier work. An excerpt:
Among those are TM1-TM7 interaction between Ser152^1.50 and Ser 390^7.47 in which Ser152^1.50 in TM1 in hGCGR forms a hydrogen bond with the backbone of Ser390^7.47 in TM7.

The test system of experiment [3] is zfGPCR (dual zfGLP-1R/GCGR). The settings on record: cited from earlier work. The procedure:
Furthermore, exendin-4, an agonist of hGLP-1R, displaced in competitive binding experiments the binding of ^125I-hGLP-1(7–36) amide to the zebrafish receptor with an IC50 of 0.9 nM, which is within a similar concentration range as the one determined in competitive binding experiments with recombinant hGLP-1R [41] and rGLP-1R [23]. However, subsequent phylo ...

The term IC50 denotes the midpoint of a concentration-inhibition curve. For “exendin-4: peptide exclusively found in the saliva of a lizard; agonist of GLP-1R; purchased from Bachem”, the “stimulation of intracellular cAMP, GLP-1 vs exendin-4” value in the experiment with GLP-1R is “to a similar degree”. For the same substance, the IC50 is 0.48 nM in experiment [1] and 0.9 nM in experiment [3] (displacement of 125I-hGLP-1(7–36)amide, read-out: IC50 in competitive binding (earlier characterization of the zfGPCR)). Also, the receptor affinity entry in experiment [2] is given as “small reduction of receptor affinity”. For the same substance, the “IC50 (in words)” value in experiment [3] (competitive binding, recombinant zfGPCR, similar to rGLP-1R and hGLP-1R) is “in the low nM range”.
